Data reported in patent publication US8455547B2, “Substituted cyclopentanes having prostaglandin activity” (Allergan, Inc., priority 2008, dated 2013).

Assays:
EP2 [1] = molecular target: T1, EP2 (Homo sapiens, UniProt P43116); test: EP2 Ca2+ signal assay; type: cell-based; conditions: for EP2 Ca2+ signal % PGE2: relative to PGE2
Description: (§1) U.S. patent application Ser. No. 11/553,143, filed on Oct. 26, 2006, incorporated by reference herein, describes the methods used to obtain the in vitro data in Tables 1 and 2 below.

EP2 [2] = molecular target: T1, EP2; test: EP2 cAMP assay; type: cell-based
Description: as §1

EP4 [3] = molecular target: T2, EP4 (Homo sapiens, UniProt P35408); test: EP4 binding assay
Description: as §1

EP2 [4] = molecular target: T1, EP2; test: EP2 binding assay
Description: as §1

EP4 [5] = molecular target: T2, EP4; test: EP4 Ca2+ signal assay; type: cell-based; conditions: for EP4 Ca2+ signal % PGE2: relative to PGE2
Description: as §1

EP1 = molecular target: T3, EP1 (Homo sapiens, UniProt P34995); test: EP1 functional assay; type: cell-based
T3 sequence (P34995 1-402): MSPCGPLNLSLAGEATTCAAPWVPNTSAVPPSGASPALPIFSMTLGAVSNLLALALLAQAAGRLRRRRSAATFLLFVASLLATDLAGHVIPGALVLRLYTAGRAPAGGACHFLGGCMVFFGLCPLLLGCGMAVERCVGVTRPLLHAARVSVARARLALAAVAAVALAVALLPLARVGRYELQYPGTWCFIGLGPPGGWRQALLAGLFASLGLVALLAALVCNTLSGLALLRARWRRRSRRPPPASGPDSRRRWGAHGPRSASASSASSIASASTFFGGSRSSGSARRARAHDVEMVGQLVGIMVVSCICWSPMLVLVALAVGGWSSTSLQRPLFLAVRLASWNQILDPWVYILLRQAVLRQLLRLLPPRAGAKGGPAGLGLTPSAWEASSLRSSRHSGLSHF
Description: as §1

TP = molecular target: T4, TP (Homo sapiens, UniProt P21731); test: TP functional assay; type: cell-based
T4 sequence (P21731 1-343): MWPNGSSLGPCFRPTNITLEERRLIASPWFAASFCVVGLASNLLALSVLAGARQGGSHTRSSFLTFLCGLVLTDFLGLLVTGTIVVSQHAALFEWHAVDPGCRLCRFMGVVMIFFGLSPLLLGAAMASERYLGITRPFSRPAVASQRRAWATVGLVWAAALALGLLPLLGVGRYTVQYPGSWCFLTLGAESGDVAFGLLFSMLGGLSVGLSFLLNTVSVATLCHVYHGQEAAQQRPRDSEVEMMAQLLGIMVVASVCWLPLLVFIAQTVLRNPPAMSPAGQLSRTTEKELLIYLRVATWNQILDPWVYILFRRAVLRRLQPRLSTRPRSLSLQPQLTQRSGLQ
Description: as §1

EP3 = molecular target: T5, EP3 (Homo sapiens, UniProt P43115); test: EP3 functional assay; type: cell-based
T5 sequence (P43115 1-390): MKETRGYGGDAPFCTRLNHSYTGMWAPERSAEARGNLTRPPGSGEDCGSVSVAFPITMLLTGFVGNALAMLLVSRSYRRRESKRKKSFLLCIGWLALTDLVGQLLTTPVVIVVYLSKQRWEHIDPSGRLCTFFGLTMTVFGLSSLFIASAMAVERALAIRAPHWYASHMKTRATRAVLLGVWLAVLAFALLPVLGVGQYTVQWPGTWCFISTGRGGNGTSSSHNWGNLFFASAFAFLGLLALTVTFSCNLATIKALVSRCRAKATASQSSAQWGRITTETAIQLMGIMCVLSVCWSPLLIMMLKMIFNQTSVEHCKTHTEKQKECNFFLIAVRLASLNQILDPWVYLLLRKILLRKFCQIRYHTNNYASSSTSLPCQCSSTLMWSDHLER
Description: as §1

T2 sequence (P35408 whole entry): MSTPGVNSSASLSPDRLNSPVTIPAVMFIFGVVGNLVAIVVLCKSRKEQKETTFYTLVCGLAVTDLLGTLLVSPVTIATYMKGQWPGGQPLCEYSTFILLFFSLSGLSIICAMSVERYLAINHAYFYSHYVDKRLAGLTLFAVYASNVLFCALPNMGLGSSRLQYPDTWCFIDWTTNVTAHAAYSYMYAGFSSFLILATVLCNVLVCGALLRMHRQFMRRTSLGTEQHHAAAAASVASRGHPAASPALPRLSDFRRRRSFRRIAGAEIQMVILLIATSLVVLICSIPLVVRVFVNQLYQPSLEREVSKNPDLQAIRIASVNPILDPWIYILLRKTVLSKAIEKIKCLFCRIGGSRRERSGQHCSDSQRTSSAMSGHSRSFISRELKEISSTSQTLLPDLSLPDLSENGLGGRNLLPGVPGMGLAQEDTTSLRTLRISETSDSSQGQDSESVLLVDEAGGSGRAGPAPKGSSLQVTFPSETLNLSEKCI
T1 sequence (P43116 whole entry): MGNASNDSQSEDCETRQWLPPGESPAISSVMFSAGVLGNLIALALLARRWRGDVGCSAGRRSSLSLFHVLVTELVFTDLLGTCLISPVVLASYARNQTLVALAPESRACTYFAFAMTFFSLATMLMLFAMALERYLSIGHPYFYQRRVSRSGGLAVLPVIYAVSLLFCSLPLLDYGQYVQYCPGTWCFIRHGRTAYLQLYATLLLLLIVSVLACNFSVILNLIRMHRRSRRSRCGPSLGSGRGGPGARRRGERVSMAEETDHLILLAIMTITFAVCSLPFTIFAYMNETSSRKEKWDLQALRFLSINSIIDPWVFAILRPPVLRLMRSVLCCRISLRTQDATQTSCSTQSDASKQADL

EC50 (EP2 [1]) [nM] | EP2 Ca2+ signal % PGE2 (EP2 [1]) [%] | EC50 (EP2 [2]) [nM] | EP4 Binding % Inh (EP4 [3]) [%] | EC50 (EP2 [4]) [nM] | EP2 Binding % Inh (EP2 [4]) [%] | EC50 (EP4 [5]) [nM] | EP4 Ca2+ signal % PGE2 (EP4 [5]) [%] | EC50 (EP1) [nM] | EC50 (EP4 [3]) [nM] | EC50 (TP) [nM] | EC50 (EP3) [nM] | SMILES
109 | 100 | 1.47 | 29 | 1220 | 78 | 727 | 99 |  |  |  |  | C[C@@H](O)CCC[C@H](O)/C=C/[C@@H]1[C@@H](CCCCCCC(=O)O)[C@H](Cl)C[C@H]1O
4 | 107 | 0.03 | 81 | 25 | 99 | 46 | 107 | 13 | 885 | 178 | 6 | C[C@@H](O)CCC[C@H](O)/C=C/[C@@H]1[C@@H](C/C=C\CCCC(=O)O)[C@H](Cl)C[C@H]1O
